Experimental data as given in patent publication US7238701B2, “Substituted tetrahydrobenzothienopyrimidinamine compounds useful for treating hyper-proliferative disorders” (Bayer Pharmaceuticals Corporation, priority 2003, dated 2007).

Key:
[1] = test system: A431cells (human epidermoid carcinoma); assay: In vitro tumor cell proliferation assay (Cell Titer-Glo luminescent cell viability), A431 cells; assay type: cell-based; conditions: A-431, 72 h, 72 hours drug exposure, 10% Fetal Bovine Serum, ATP luminescence readout, read-out: IC50 (50% inhibition of cell proliferation)
Source text: (§1) In vitro Tumor Cell Proliferation Assay
(§2) The tumor cell proliferation assay used to test the compounds of the present invention involves a readout called Cell Titer-Glow® Luminescent Cell Viability Assay developed by Promega (Cunningham, B A “A Growing Issue: Cell Proliferation Assays, Modern kits ease quantification of cell growth” The Scientist 2001, 15(13), 26, and Crouch, S P et al., “The use of ATP bioluminescence as a measure of cell proliferation and cytotoxicity” Journal of Immunological Methods 1993, 160, 81–88), that measures inhibition of cell proliferation. Generation of a luminescent signal corresponds to the amount of ATP present, which is directly proportional to the number of metabolically active (proliferating) cells.
(§3) A431cells (human epidermoid carcinoma, ATCC # HTB-20) and BT474 (human breast carcinoma, ATCC # CRL-1555) were plated at a density of 2.5×10^3 cells/well in 96 well black-clear bottom tissue culture plates in RPMI media with 10% Fetal Bovine Serum and incubated at 37° C. Twenty-four hours later, test compounds are added at a final concentration range from as high 100 μM to as low 64 pM depend on the activities of the tested compounds in serial dilutions at a final DMSO concentration of 0.1%. Cells were incubated for 72 hours at 37° C. in complete growth media after addition of the test compound. After 72 hours of drug exposure, the plates were equilibrated to room temperature for approximately 30 min. Then, using a Promega Cell Titer Glo Luminescent® assay kit, lysis buffer containing 100 microliters of the enzyme luciferase and its substrate, luciferin mixture, was added to each well. The plates were mixed for 2 min on orbital shaker to ensure cell lysis and incubated for 10 min at room temperature to stabilize luminescence signal. The samples were read on VICTOR 2 using Luminescence protocol, and analyzed with Analyze5 software to generate IC50 values.

[2] = test system: BT474 (human breast carcinoma); assay: In vitro tumor cell proliferation assay (Cell Titer-Glo luminescent cell viability), BT474 cells; assay type: cell-based; conditions: BT-474, 72 hours drug exposure, 10% Fetal Bovine Serum, ATP luminescence readout, read-out: IC50 (50% inhibition of cell proliferation)
Source text: as §1, §2, §3

C=CCNC(=O)C1CCc2c(sc3ncnc(Nc4cccc(Br)c4)c23)C1 (stereo not shown) [Example 56, N-allyl-4-[(3-bromophenyl)amino]-5,6,7,8-tetrahydro[1]benzothieno[2,3-d]pyrimidine-7-carboxamide] showed an IC50 [1] of less than 50 µM and an IC50 [2] of less than 50 µM.
CCOC(=O)CC1CCc2c(sc3ncnc(Nc4ccc(F)c(Cl)c4)c23)C1 (stereo not shown) [Example 57, ethyl {4-[(3-chloro-4-fluorophenyl)amino]-5,6,7,8-tetrahydro[1]benzothieno[2,3-d]pyrimidin-7-yl}acetate] gave an IC50 [1] of less than 50 µM and an IC50 [2] of less than 50 µM.
Compound CN1CCN(C(=O)CC2CCc3c(sc4ncnc(Nc5ccc(F)c(Cl)c5)c34)C2)CC1 (stereo not shown) [Example 58, N-(3-chloro-4-fluorophenyl)-7-[2-(4-methyl-1-piperazinyl)-2-oxoethyl]-5,6,7,8-tetrahydro[1]benzothieno[2,3-d]pyrimidin-4-amine] has an IC50 [1] of less than 5 µM and an IC50 [2] of less than 5 µM.
In the case of CN1CCN(CCC2CCc3c(sc4ncnc(Nc5ccc(F)c(Cl)c5)c34)C2)CC1 (stereo not shown) [Example 59, N-(3-chloro-4-fluorophenyl)-7-[2-(4-methyl-1-piperazinyl)ethyl]-5,6,7,8-tetrahydro[1]benzothieno[2,3-d]pyrimidin-4-amine], the IC50 [1] is reported as less than 5 µM and the IC50 [2] is reported as less than 5 µM.
In the case of CN(C)[C@@H]1CCN(C(=O)C2CCc3c(sc4ncnc(Nc5cccc(Br)c5)c34)C2)C1 (stereo partly drawn) [Example 60, N-(3-bromophenyl)-7-{[(3R)-3-(dimethylamino)-1-pyrrolidinyl]carbonyl}-5,6,7,8-tetrahydro[1]benzothieno[2,3-d]pyrimidin-4-amine], the IC50 [1] is reported as less than 5 µM and the IC50 [2] is reported as less than 5 µM.
For O=C(CC1CCc2c(sc3ncnc(Nc4ccc(F)c(Cl)c4)c23)C1)N1CCOCC1 (stereo not shown) [Example 61, N-(3-chloro-4-fluorophenyl)-7-[2-(4-morpholinyl)-2-oxoethyl]-5,6,7,8-tetrahydro[1]benzothieno[2,3-d]pyrimidin-4-amine], the IC50 [1] was less than 5 µM and the IC50 [2] was less than 50 µM.
COCCNC(=O)CC1CCc2c(sc3ncnc(Nc4ccc(F)c(Cl)c4)c23)C1 (stereo not shown) [Example 62, 2-{4-[(3-chloro-4-fluorophenyl)amino]-5,6,7,8-tetrahydro[1]benzothieno[2,3-d]pyrimidin-7-yl}-N-(2-methoxyethyl)acetamide] was tested, and the IC50 [1] was less than 5 µM and the IC50 [2] was less than 5 µM.
CCOC(=O)CC1CCc2c(sc3ncnc(Nc4cccc(Br)c4)c23)C1 (stereo not shown) [Example 63, ethyl {4-[(3-bromophenyl)amino]-5,6,7,8-tetrahydro[1]benzothieno[2,3-d]pyrimidin-7-yl}acetate] gave an IC50 [1] of less than 50 µM and an IC50 [2] of less than 50 µM.
In the case of OCCC1CCc2c(sc3ncnc(Nc4ccc(F)c(Cl)c4)c23)C1 (stereo not shown) [Example 64, 2-{4-[(3-chloro-4-fluorophenyl)amino]-5,6,7,8-tetrahydro[1]benzothieno[2,3-d]pyrimidin-7-yl}ethanol], the IC50 [1] is reported as less than 50 µM and the IC50 [2] is reported as less than 50 µM.
Work on O=C(O)CC1CCc2c(sc3ncnc(Nc4cccc(Br)c4)c23)C1 (stereo not shown) [Example 65, {4-[(3-bromophenyl)amino]-5,6,7,8tetrahydro[1]benzothieno[2,3-d]pyrimidin-7-yl}acetic acid] yielded an IC50 [1] of less than 50 µM and an IC50 [2] of less than 50 µM.
For CN(C)[C@@H]1CCN(CC2CCc3c(sc4ncnc(Nc5cccc(Br)c5)c34)C2)C1 (stereo partly drawn) [Example 66, N-(3-bromophenyl)-7-{[(3R)-3-(dimethylamino)-1-pyrrolidinyl]methyl}-5,6,7,8-tetrahydro[1]benzothieno[2,3-d]pyrimidin-4-amine], the IC50 [1] was less than 5 µM and the IC50 [2] was less than 5 µM.
With O=C(CC1CCc2c(sc3ncnc(Nc4ccc(F)c(Cl)c4)c23)C1)N1CCCCC1 (stereo not shown) [Example 67, N-(3-chloro-4-fluorophenyl)-7-[2-oxo-2-(1-piperidinyl)ethyl]-5,6,7,8-tetrahydro[1]benzothieno[2,3-d]pyrimidin-4-amine] the IC50 [1] was less than 50 µM and the IC50 [2] was less than 5 µM.
CN1CCN(C(=O)CC2CCc3c(sc4ncnc(Nc5cccc(Br)c5)c34)C2)CC1 (stereo not shown) [Example 68, N-(3-bromophenyl)-7-[2-(4-methyl-1-piperazinyl)-2-oxoethyl]-5,6,7,8-tetrahydro[1]benzothieno[2,3-d]pyrimidin-4-amine] gave an IC50 [1] of less than 50 µM and an IC50 [2] of less than 50 µM.
In the case of O=C(CC1CCc2c(sc3ncnc(Nc4cccc(Br)c4)c23)C1)NCCN1CCOCC1 (stereo not shown) [Example 69], the IC50 [1] is reported as less than 50 µM and the IC50 [2] is reported as less than 50 µM.
Work on O=C(CC1CCc2c(sc3ncnc(Nc4cccc(Br)c4)c23)C1)N1CCOCC1 (stereo not shown) [Example 70] yielded an IC50 [1] of less than 5 µM and an IC50 [2] of less than 50 µM.
Compound O=C(CC1CCc2c(sc3ncnc(Nc4cccc(Br)c4)c23)C1)N1CCCCC1 (stereo not shown) [Example 71, N-(3-bromophenyl)-7-[2-oxo-2-(1-piperidinyl)ethyl]-5,6,7,8-tetrahydro[1]benzothieno[2,3-d]pyrimidin-4-amine] has an IC50 [1] of less than 50 µM and an IC50 [2] of less than 50 µM.
O=C(O)CC1CCc2c(sc3ncnc(Nc4ccc(F)c(Cl)c4)c23)C1 (stereo not shown) [Example 72] showed an IC50 [1] of less than 5 µM and an IC50 [2] of less than 50 µM.
Fc1ccc(Nc2ncnc3sc4c(c23)CCC(CCN2CCCCC2)C4)cc1Cl (stereo not shown) [Example 73, N-(3-chloro-4-fluorophenyl)-7-[2-(1-piperidinyl)ethyl]-5,6,7,8-tetrahydro[1]benzothieno[2,3-d]pyrimidin-4-amine] was tested, and the IC50 [1] was less than 5 µM and the IC50 [2] was less than 5 µM.
Fc1ccc(Nc2ncnc3sc4c(c23)CCC(CCN2CCCC2)C4)cc1Cl (stereo not shown) [Example 74, N-(3-chloro-4-fluorophenyl)-7-[2-(1-pyrrolidinyl)ethyl]-5,6,7,8-tetrahydro[1]benzothieno[2,3-d]pyrimidin-4-amine] was tested, and the IC50 [1] was less than 5 µM and the IC50 [2] was less than 5 µM.
In the case of COCCNCCC1CCc2c(sc3ncnc(Nc4ccc(F)c(Cl)c4)c23)C1 (stereo not shown) [Example 75, N-(3-chloro-4-fluorophenyl)-7-{2-[(2-methoxyethyl)amino]ethyl}-5,6,7,8-tetrahydro[1]benzothieno[2,3-d]pyrimidin-4-amine], the IC50 [1] is reported as less than 5 µM and the IC50 [2] is reported as less than 5 µM.
COc1ccc(NCCC2CCc3c(sc4ncnc(Nc5ccc(F)c(Cl)c5)c34)C2)cc1 (stereo not shown) [Example 76, N-(3-chloro-4-fluorophenyl)-7-{2-[(4-methoxyphenyl)amino]ethyl}-5,6,7,8-tetrahydro[1]benzothieno[2,3-d]pyrimidin-4-amine] gave an IC50 [1] of less than 50 µM and an IC50 [2] of less than 50 µM.
Work on CS(=O)(=O)CCNC(=O)CC1CCc2c(sc3ncnc(Nc4cccc(Br)c4)c23)C1 (stereo not shown) [Example 77, 2-{4-[(3-bromophenyl)amino]-5,6,7,8-tetrahydro[1]benzothieno[2,3-d]pyrimidin-7-yl}-N-[2-(methylsulfonyl)ethyl]acetamide] yielded an IC50 [1] of less than 5 µM and an IC50 [2] of less than 5 µM.
Brc1cccc(Nc2ncnc3sc4c(c23)CCC(CCNCCN2CCOCC2)C4)c1 (stereo not shown) [Example 78, N-(3-bromophenyl)-7-(2-{[2-(4-morpholinyl)ethyl]amino}ethyl)-5,6,7,8-tetrahydro[1]benzothieno[2,3-d]pyrimidin-4-amine] was tested, and the IC50 [1] was less than 5 µM and the IC50 [2] was less than 5 µM.
Work on Brc1cccc(Nc2ncnc3sc4c(c23)CCC(CCN2CCCCC2)C4)c1 (stereo not shown) [Example 79, N-(3-bromophenyl)-7-[2-(1-piperidinyl)ethyl]-5,6,7,8-tetrahydro[1]benzothieno[2,3-d]pyrimidin-4-amine] yielded an IC50 [1] of less than 5 µM and an IC50 [2] of less than 5 µM.
In the case of CN1CCN(CCC2CCc3c(sc4ncnc(Nc5cccc(Br)c5)c34)C2)CC1 (stereo not shown) [Example 80, N-(3-bromophenyl)-7-[2-(4-methyl-1-piperazinyl)ethyl]-5,6,7,8-tetrahydro[1]benzothieno[2,3-d]pyrimidin-4-amine], the IC50 [1] is reported as less than 5 µM and the IC50 [2] is reported as less than 5 µM.
O=C(CC1CCc2c(sc3ncnc(Nc4cccc(Br)c4)c23)C1)N1CCCC1 (stereo not shown) [Example 81, N-(3-bromophenyl)-7-[2-oxo-2-(1-pyrrolidinyl)ethyl]-5,6,7,8-tetrahydro[1]benzothieno[2,3-d]pyrimidin-4-amine] gave an IC50 [1] of less than 50 µM and an IC50 [2] of less than 50 µM.
For COCCNC(=O)CC1CCc2c(sc3ncnc(Nc4cccc(Br)c4)c23)C1 (stereo not shown) [Example 82, 2-{4-[(3-bromophenyl)amino]-5,6,7,8-tetrahydro[1]benzothieno[2,3-d]pyrimidin-7-yl}-N-(2-methoxyethyl)acetamide], the IC50 [1] was less than 5 µM and the IC50 [2] was less than 5 µM.
Work on COCCN(C)C(=O)CC1CCc2c(sc3ncnc(Nc4cccc(Br)c4)c23)C1 (stereo not shown) [Example 83, 2-{4-[(3-bromophenyl)amino]-5,6,7,8-tetrahydro[1]benzothieno[2,3-d]pyrimidin-7-yl}-N-(2-methoxyethyl)-N-methylacetamide] yielded an IC50 [1] of less than 5 µM and an IC50 [2] of less than 50 µM.
In the case of CS(=O)(=O)CCNCCC1CCc2c(sc3ncnc(Nc4cccc(Br)c4)c23)C1 (stereo not shown) [Example 84, N-(3-bromophenyl)-7-(2-{[2-(methylsulfonyl)ethyl]amino}ethyl)-5,6,7,8-tetrahydro[1]benzothieno[2,3-d]pyrimidin-4-amine], the IC50 [1] is reported as less than 5 µM and the IC50 [2] is reported as less than 5 µM.
